# Where two headings read alike, the source gives them in different places. Starred links: 1 amine or outer side, 2 acyl side, 3 side chain; linkers in the order of their positions; H or OH if unused. Non-standard residues stand in square brackets, D forms with d. Residues, ends and D or L forms follow the SMILES beside them. Groups on a side chain read outwards from the residue. *: point of attachment. C18 diacid = O=C(O)CCCCCCCCCCCCCCCCC(=O)*; C16 diacid = O=C(O)CCCCCCCCCCCCCCC(=O)*; γGlu = O=C(O)[C@H](CCC(=O)[*:2])N[*:1]; Palmitoyl = CCCCCCCCCCCCCCCC(=O)*; Aib = CC(C)(N)C(=O)O
# What was measured:
# [1] = target: T1, CRF1R receptor (Homo sapiens, UniProt P34998); test: cAMP activity at anti-target CRF1R, CHO-K1 cell line clone 2 (Example 19.10); format: cell-based; settings: 100% = Sauvagine at 100 nM; CRF1R CHO-K1 clone 2
# T1 construct: host or cells: CHO-K1 clone 2
# T1 sequence (P34998 24-415): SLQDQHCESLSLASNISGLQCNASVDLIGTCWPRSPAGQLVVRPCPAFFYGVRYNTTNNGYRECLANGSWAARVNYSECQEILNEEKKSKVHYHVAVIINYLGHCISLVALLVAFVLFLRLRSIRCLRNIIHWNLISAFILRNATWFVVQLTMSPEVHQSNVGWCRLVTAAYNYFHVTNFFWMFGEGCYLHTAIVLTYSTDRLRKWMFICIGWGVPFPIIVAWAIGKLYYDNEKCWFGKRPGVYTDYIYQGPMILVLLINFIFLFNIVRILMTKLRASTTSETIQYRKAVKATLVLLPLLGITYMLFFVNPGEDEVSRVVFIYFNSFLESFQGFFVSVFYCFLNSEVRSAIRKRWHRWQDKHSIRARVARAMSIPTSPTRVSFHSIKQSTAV
# Description: The CRF1R-overexpression CHO-K1 cell line clone 2 was purchased from PerkinElmer.
# Cells were grown in a 10 cm dish at 37° C./5% CO2 in medium (F12 (Hams)/10% FBS/400 μg/ml G418) to near confluence. At that stage, cells were harvested, resuspended to 10 million/mL in culture medium without G418 and with 10% DMSO. 1 mL vial aliquots were slowly frozen to -80° C. in isopropanol and then transferred in liquid nitrogen for storage. These vials were used to run the experiment following the procedure reported 10 in the previous paragraph, except for the compound used in the control well to define the 100% activation (Sauvagine at 100 nM)
# [2] = target: T2, human CRF2α receptor (Homo sapiens, UniProt Q13324); test: cAMP agonism at human CRF2 α receptor in TeloHEAC cells (Example 7); format: cell-based; settings: cAMP HTRF, TeloHEAC cells stably expressing human CRF2 α
# T2 construct: expressed in transfected cells; host or cells: TeloHEAC
# T2 sequence (Q13324 1-411): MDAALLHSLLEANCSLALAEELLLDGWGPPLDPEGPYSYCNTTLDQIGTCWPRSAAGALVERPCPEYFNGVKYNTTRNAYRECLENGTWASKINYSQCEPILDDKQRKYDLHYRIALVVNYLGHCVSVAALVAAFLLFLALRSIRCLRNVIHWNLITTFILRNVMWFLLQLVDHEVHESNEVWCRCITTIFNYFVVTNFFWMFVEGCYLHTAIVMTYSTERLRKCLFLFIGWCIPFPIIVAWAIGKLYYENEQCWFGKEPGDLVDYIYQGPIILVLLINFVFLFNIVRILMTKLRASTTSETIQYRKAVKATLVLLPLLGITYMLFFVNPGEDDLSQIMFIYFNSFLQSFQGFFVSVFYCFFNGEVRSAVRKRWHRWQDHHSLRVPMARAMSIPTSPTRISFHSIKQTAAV
# Summary of the method: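 HTRF ratio 665/620 nm, read 1 h after lysis reagents, reports cAMP. Cells: thawed stocks, 2000/well, 30 min RT with compound in HBSS, 20 mM HEPES, 0 or 0.1% HSA, 2 mM IBMX. Activity normalised to UCN2 1000 nM = 100%; EC50 from half-maximal activation.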
# [3] = 0% HSA, read-out: EC50 [nM], 0% HSA
# [4] = 0.1% HSA, read-out: EC50 [nM], 0.1% HSA
SMILES,Emax [1],"EC50 [2, 3]","EC50 [2, 4]"
CC[C@H](C)[C@H](N)C(=O)N[C@H](C(=O)N[C@@H](CC(C)C)C(=O)N[C@@H](CO)C(=O)N[C@@H](CC(C)C)C(=O)N[C@@H](CC(=O)O)C(=O)N[C@@H](C(=O)N1CCC[C@H]1C(=O)N[C@H](C(=O)N[C@@H](CCCCN)C(=O)N[C@@H](CC(C)C)C(=O)N[C@@H](CCCCNC(=O)CC[C@H](NC(=O)CCCCCCCCCCCCCCC(=O)O)C(=O)O)C(=O)N[C@@H](CCC(N)=O)C(=O)N[C@@H](CCCCN)C(=O)N[C@@H](CC(C)C)C(=O)N[C@@H](CC(C)C)C(=O)N[C@@H](CCCCN)C(=O)N[C@@H](CCC(N)=O)C(=O)N[C@@H](CCC(=O)O)C(=O)N[C@@H](CCCNC(=N)N)C(=O)N[C@@H](CCC(N)=O)C(=O)N[C@@H](CCCNC(=N)N)C(=O)N[C@@H](CCCCN)C(=O)N[C@@H](CCC(=O)O)C(=O)N[C@@H](CCCNC(=N)N)C(=O)N[C@@H](CCC(=O)O)C(=O)N[C@@H](CCC(N)=O)C(=O)N[C@@H](C)C(=O)N[C@@H](CCC(=O)O)C(=O)N[C@@H](CCCCN)C(=O)N[C@@H](CC(N)=O)C(=O)N[C@H](C(=O)N[C@@H](CCCNC(=N)N)C(=O)N[C@H](C(=O)N[C@@H](CC(C)C)C(=O)N[C@@H](CCC(=O)O)C(=O)N[C@@H](CCCNC(=N)N)C(=O)N[C@H](C(N)=O)C(C)C)[C@@H](C)CC)C(C)C)[C@@H](C)O)C(C)C)C(C)C [SEQ ID NO: 222] (H-IVLSLD[dV]PTKLK([γGlu-C16 diacid])QKLLKQERQRKEREQAEKNVRILERV-NH2; N-terminus assumed),6.2%,–,–
CCCCCCCCCCCCCCCC(=O)N[C@@H](CCC(=O)NCCCC[C@H](NC(=O)[C@H](CC(C)C)NC(=O)[C@H](CCCCN)NC(=O)[C@@H](NC(=O)[C@@H]1CCCN1C(=O)[C@H](NC(=O)[C@H](CC(=O)O)NC(=O)[C@H](CC(C)C)NC(=O)[C@H](CO)NC(=O)[C@H](CC(C)C)NC(=O)[C@@H](NC(=O)[C@@H](N)[C@@H](C)CC)C(C)C)C(C)C)[C@@H](C)O)C(=O)N[C@@H](CCC(N)=O)C(=O)N[C@@H](CCCCN)C(=O)N[C@@H](CC(C)C)C(=O)N[C@@H](CC(C)C)C(=O)N[C@@H](CCCCN)C(=O)N[C@@H](CCC(N)=O)C(=O)N[C@@H](CCC(=O)O)C(=O)N[C@@H](CCCNC(=N)N)C(=O)N[C@@H](CCC(N)=O)C(=O)N[C@@H](CCCNC(=N)N)C(=O)N[C@@H](CCCCN)C(=O)N[C@@H](CCC(=O)O)C(=O)N[C@@H](CCCNC(=N)N)C(=O)N[C@@H](CCC(=O)O)C(=O)N[C@@H](CCC(N)=O)C(=O)N[C@@H](C)C(=O)N[C@@H](CCC(=O)O)C(=O)N[C@@H](CCCCN)C(=O)N[C@@H](CC(N)=O)C(=O)N[C@@H](CCCCN)C(=O)N[C@@H](CCCNC(=N)N)C(=O)N[C@H](C(=O)N[C@@H](CC(C)C)C(=O)N[C@@H](CCC(=O)O)C(=O)N[C@@H](CCCNC(=N)N)C(=O)N[C@H](C(N)=O)C(C)C)[C@@H](C)CC)C(=O)O [SEQ ID NO: 223] (H-IVLSLD[dV]PTKLK([γGlu-Palmitoyl])QKLLKQERQRKEREQAEKNKRILERV-NH2; N-terminus assumed),57.3%,–,–

# The next lines start with the values.
Emax [1],"EC50 [2, 3]","EC50 [2, 4]",SMILES
–,0.03 nM,1.88 nM,CC[C@H](C)[C@H](N)C(=O)N[C@H](C(=O)N[C@@H](CC(C)C)C(=O)N[C@@H](CO)C(=O)N[C@@H](CC(C)C)C(=O)N[C@@H](CC(=O)O)C(=O)N[C@@H](C(=O)N1CCC[C@H]1C(=O)N[C@H](C(=O)N[C@@H](CCCCN)C(=O)N[C@@H](CC(C)C)C(=O)N[C@@H](CCCCNC(=O)CC[C@H](NC(=O)CCCCCCCCCCCCCCCCC(=O)O)C(=O)O)C(=O)N[C@@H](CCC(N)=O)C(=O)N[C@H](C(=O)N[C@@H](CC(C)C)C(=O)N[C@@H](CC(C)C)C(=O)N[C@@H](CCCCN)C(=O)N[C@@H](CCC(N)=O)C(=O)N[C@@H](CCC(=O)O)C(=O)N[C@@H](CCCNC(=N)N)C(=O)N[C@@H](CCC(N)=O)C(=O)N[C@@H](CCCCN)C(=O)NC(C)(C)C(=O)N[C@@H](CCC(N)=O)C(=O)N[C@@H](CCCNC(=N)N)C(=O)N[C@@H](CCC(=O)O)C(=O)N[C@@H](CCC(N)=O)C(=O)N[C@@H](C)C(=O)N[C@@H](CCC(=O)O)C(=O)N[C@@H](CCCCN)C(=O)N[C@@H](CC(N)=O)C(=O)N[C@@H](CCCCN)C(=O)N[C@@H](CCC(N)=O)C(=O)N[C@H](C(=O)N[C@@H](CC(C)C)C(=O)N[C@@H](C)C(=O)N[C@@H](CCC(N)=O)C(=O)N[C@H](C(N)=O)C(C)C)[C@@H](C)CC)[C@@H](C)CC)[C@@H](C)CC)C(C)C)C(C)C [compound 179] (H-IVLSLD[dV]PIKLK([γGlu-C18 diacid])QILLKQERQK[Aib]QREQAEKNKQILAQV-NH2; N-terminus assumed)
–,0.05 nM,1.74 nM,CC[C@H](C)[C@H](N)C(=O)N[C@H](C(=O)N[C@@H](CC(C)C)C(=O)N[C@@H](CO)C(=O)N[C@@H](CC(C)C)C(=O)N[C@@H](CC(=O)O)C(=O)N[C@@H](C(=O)N1CCC[C@H]1C(=O)N[C@H](C(=O)N[C@@H](CCCCN)C(=O)N[C@@H](CC(C)C)C(=O)N[C@@H](CCCCNC(=O)CC[C@H](NC(=O)CCCCCCCCCCCCCCCCC(=O)O)C(=O)O)C(=O)N[C@@H](CCC(N)=O)C(=O)N[C@H](C(=O)N[C@@H](CC(C)C)C(=O)N[C@@H](CC(C)C)C(=O)N[C@@H](CCCCN)C(=O)N[C@@H](CCC(N)=O)C(=O)N[C@@H](C)C(=O)N[C@@H](CCCNC(=N)N)C(=O)N[C@@H](CCC(N)=O)C(=O)N[C@@H](CCCCN)C(=O)NC(C)(C)C(=O)N[C@@H](CCC(N)=O)C(=O)N[C@@H](CCCNC(=N)N)C(=O)N[C@@H](C)C(=O)N[C@@H](CCC(N)=O)C(=O)N[C@@H](C)C(=O)N[C@@H](CCC(=O)O)C(=O)N[C@@H](CCCCN)C(=O)N[C@@H](CC(N)=O)C(=O)N[C@@H](CCCCN)C(=O)N[C@@H](CCCNC(=N)N)C(=O)N[C@H](C(=O)N[C@@H](CC(C)C)C(=O)N[C@@H](CCC(=O)O)C(=O)N[C@@H](CCCNC(=N)N)C(=O)N[C@H](C(N)=O)C(C)C)[C@@H](C)CC)[C@@H](C)CC)[C@@H](C)CC)C(C)C)C(C)C [compound 180] (H-IVLSLD[dV]PIKLK([γGlu-C18 diacid])QILLKQARQK[Aib]QRAQAEKNKRILERV-NH2; N-terminus assumed)
–,1.18 nM,15.3 nM,CC[C@H](C)[C@H](N)C(=O)N[C@H](C(=O)N[C@@H](CC(C)C)C(=O)N[C@@H](CO)C(=O)N[C@@H](CC(C)C)C(=O)N[C@@H](CC(=O)O)C(=O)N[C@@H](C(=O)N1CCC[C@H]1C(=O)N[C@H](C(=O)N[C@@H](CCCCN)C(=O)N[C@@H](CC(C)C)C(=O)N[C@@H](CCCCNC(=O)CC[C@H](NC(=O)CCCCCCCCCCCCCCCCC(=O)O)C(=O)O)C(=O)N[C@@H](CCC(N)=O)C(=O)N[C@H](C(=O)N[C@@H](CC(C)C)C(=O)N[C@@H](CC(C)C)C(=O)N[C@@H](CCCCN)C(=O)N[C@@H](CCC(N)=O)C(=O)N[C@@H](CCC(=O)O)C(=O)N[C@@H](CCCNC(=N)N)C(=O)N[C@@H](CCC(N)=O)C(=O)N[C@@H](CCCCN)C(=O)N[C@@H](CCCCN)C(=O)N[C@@H](CCC(N)=O)C(=O)N[C@@H](CCCNC(=N)N)C(=O)N[C@@H](CCC(N)=O)C(=O)N[C@@H](CCC(N)=O)C(=O)N[C@@H](C)C(=O)N[C@@H](CCC(=O)O)C(=O)N[C@@H](CCCCN)C(=O)N[C@@H](CC(N)=O)C(=O)N[C@@H](CCCCN)C(=O)N[C@@H](CCC(N)=O)C(=O)N[C@H](C(=O)N[C@@H](CC(C)C)C(=O)N[C@@H](C)C(=O)N[C@@H](CCC(N)=O)C(=O)N[C@H](C(N)=O)C(C)C)[C@@H](C)CC)[C@@H](C)CC)[C@@H](C)CC)C(C)C)C(C)C [compound 181] (H-IVLSLD[dV]PIKLK([γGlu-C18 diacid])QILLKQERQKKQRQQAEKNKQILAQV-NH2; N-terminus assumed)

# From patent US12679878B2, “CRF2 receptor agonists and their use in therapy” (SANOFI, priority 2020, dated 2026)
